Measured values reported in ChEMBL document CHEMBL3813656, “Allosteric Glutaminase Inhibitors Based on a 1,4-Di(5-amino-1,3,4-thiadiazol-2-yl)butane Scaffold” (ACS Med Chem Lett, 2016).
In brackets after ≈: the same amount, converted by molar mass. Activity calls are given as the source filed them. The rule behind the calls is not given here.

Assays:
[1] = target: T1, Glutaminase kidney isoform, mitochondrial (Homo sapiens, UniProt O94925); test: Inhibition of human kidney type glutaminase (124 to 669 residues) using L-[3H]-glutamine as substrate after 45 mins by topcount method
T1 sequence (O94925 whole entry): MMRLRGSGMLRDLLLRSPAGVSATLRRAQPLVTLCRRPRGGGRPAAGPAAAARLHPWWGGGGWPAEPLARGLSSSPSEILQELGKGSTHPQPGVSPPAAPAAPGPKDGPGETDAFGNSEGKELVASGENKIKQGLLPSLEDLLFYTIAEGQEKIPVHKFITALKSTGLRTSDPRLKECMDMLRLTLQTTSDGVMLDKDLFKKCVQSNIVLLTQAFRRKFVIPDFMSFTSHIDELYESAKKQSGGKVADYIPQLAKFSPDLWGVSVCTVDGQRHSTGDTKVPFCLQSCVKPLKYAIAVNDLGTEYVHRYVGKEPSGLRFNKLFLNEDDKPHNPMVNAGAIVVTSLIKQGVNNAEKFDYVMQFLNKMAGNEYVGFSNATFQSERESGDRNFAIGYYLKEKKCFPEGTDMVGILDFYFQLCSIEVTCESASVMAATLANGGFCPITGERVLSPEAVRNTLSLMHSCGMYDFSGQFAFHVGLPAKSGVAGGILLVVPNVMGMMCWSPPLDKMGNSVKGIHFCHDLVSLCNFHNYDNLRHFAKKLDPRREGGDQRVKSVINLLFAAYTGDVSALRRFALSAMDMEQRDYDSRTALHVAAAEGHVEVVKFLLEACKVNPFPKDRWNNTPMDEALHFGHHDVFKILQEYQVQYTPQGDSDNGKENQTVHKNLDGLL

[2] = target: T2, Glutaminase kidney isoform, mitochondrial (Homo sapiens) (UniProt O94925)
T2 sequence (whole entry): T1 sequence (O94925 whole entry)
Description: Time-dependent inhibition of human kidney type glutaminase (124 to 669 residues) using L-[3H]-glutamine as substrate by topcount method

[3] = Aqueous solubility of the compound in PBS buffer at pH 7.4 at 37 degC after 24 hrs by LC/MS analysis; assay type: physicochemical; conditions: pH 7.4, 24 h

| IC50 [1] | TDI [2] | solubility [3] | SMILES |
| --- | --- | --- | --- |
| 2300 nM | – | – | Nc1ccc(CC(=O)Nc2nnc(CCCCc3nnc(NC(=O)Cc4ccccc4)s3)s2)cc1 |
| 3000 nM | – | – | CN(C)c1ccc(CC(=O)Nc2nnc(CCCCc3nnc(NC(=O)Cc4ccccc4)s3)s2)cc1 |
| 140 nM | – | – | O=C(Cc1ccc(O)cc1)Nc1nnc(CCCCc2nnc(NC(=O)Cc3cccnc3)s2)s1 |
| 120 nM | – | – | O=C(Cc1ccc(O)cc1)Nc1nnc(CCCCc2nnc(NC(=O)Cc3ccc(O)cc3)s2)s1 |
| 70 nM | – | – | O=C(Cc1ccccc1)Nc1nnc(CCCCc2nnc(NC(=O)Cc3ccccn3)s2)s1 |
| 70 nM | – | – | O=C(Cc1ccccc1)Nc1nnc(CCCCc2nnc(NC(=O)Cc3cccnc3)s2)s1 |
| 2000 nM | – | – | CC(=O)Oc1ccc(CC(=O)Nc2nnc(CCCCc3nnc(NC(=O)Cc4cccc(OC(F)(F)F)c4)s3)s2)cc1 |
| 380 nM | – | – | O=C(Cc1ccccc1)Nc1nnc(CCCCc2nnc(NC(=O)Cc3ccc(Oc4ccccc4)cc3)s2)s1 |
| 110 nM | – | – | O=C(Cc1ccccc1)Nc1nnc(CCCCc2nnc(NC(=O)Cc3ccc(C(=O)O)cc3)s2)s1 |
| 120 nM | – | – | CC(=O)Oc1ccc(CC(=O)Nc2nnc(CCCCc3nnc(NC(=O)Cc4cccnc4)s3)s2)cc1 |
| 120 nM | – | – | O=C(Cc1ccccc1)Nc1nnc(CCCCc2nnc(NC(=O)Cc3cccc(O)c3)s2)s1 |
| 210 nM | – | – | COc1ccc(CC(=O)Nc2nnc(CCCCc3nnc(NC(=O)Cc4ccccc4)s3)s2)cc1 |
| 70 nM | inactive | 17 µg/mL (≈ 33.4 µM) | O=C(Cc1ccccc1)Nc1nnc(CCCCc2nnc(NC(=O)Cc3ccc(O)cc3)s2)s1 |
| 170 nM | – | – | O=C(Cc1ccccc1)Nc1nnc(CCCCc2nnc(NC(=O)Cc3ccc(Br)cn3)s2)s1 |
| 13000 nM | – | – | COC(=O)c1ccc(CC(=O)Nc2nnc(CCCCc3nnc(NC(=O)Cc4ccccc4)s3)s2)cc1 |
| 510 nM | – | – | O=C(Cc1ccc(O)cc1)Nc1nnc(CCCCc2nnc(NC(=O)Cc3cccc(OC(F)(F)F)c3)s2)s1 |
| 1200 nM | – | – | CC(=O)Oc1ccc(CC(=O)Nc2nnc(CCCCc3nnc(NC(=O)Cc4ccc(OC(C)=O)cc4)s3)s2)cc1 |
| 450 nM | – | – | CC(C)(C)OC(=O)Nc1ccc(CC(=O)Nc2nnc(CCCCc3nnc(NC(=O)Cc4ccccc4)s3)s2)cc1 |
| 540 nM | – | – | CC(=O)Oc1ccc(CC(=O)Nc2nnc(CCCCc3nnc(NC(=O)Cc4ccccc4)s3)s2)cc1 |

| SMILES | IC50 [1] | TDI [2] | solubility [3] |
| --- | --- | --- | --- |
| O=C(Cc1ccccc1)Nc1nnc(CCCCc2nnc(NC(=O)Cc3ccc(OCc4ccccc4)cc3)s2)s1 | > 25000 nM | – | – |
